Test system: Botrytis cinerea
Test: Comparison trial: control of gray mould (Botrytis cinerea) on fruit slices of green pepper
Type: in vivo
Settings: green pepper fruit slices sprayed with 500 ppm, inoculated after 2 hours, incubated four days at 18-20° C.; untreated infected to 100%
Description: The active compounds, separately or together, were formulated as a 10% emulsion in a mixture of 70% by weight of cyclohexanone, 20% by weight of Nekanil® LN (Lutensol® AP6, wetting agent having emulsifying and dispersant action based on ethoxylated alkylphenols) and 10% by weight of Wettol® EM (nonionic emulsifier based on ethoxylated castor oil) and diluted with water to the desired concentration. Comparison trial—Control of gray mould (Botrytis cinerea) on fruit slices of green pepper Fruit slices of green pepper were sprayed to run-off with an aqueous suspension, containing the concentration of active ingredient or their mixture mentioned in the table below, prepared from a stock solution containing 10% of the active ingredient; 85% cyclohexanone and 5% emulsifier. After 2 hours the sprayed-on layer had dried, the disks were inoculated with a spore suspension of Botrytis cinerea containing 1,7×10^6 spores per ml in 2 wt. % aqueous biomalt solution. The infected fruit slices were then incubated in chambers with high humidity for four days at 18-20° C. The fruit slice area under fungal attack was then assessed visually in percent.

## Fc1cccc(F)c1-c1c(Cl)nc2ncnn2c1NCC(F)(F)F [A]
  infection (fruit slice area under fungal attack in percent): 100%

## CC(Nc1c(-c2c(F)cccc2F)c(Cl)nc2ncnn12)C(F)(F)F (centres unmarked) [B]
  infection (fruit slice area under fungal attack in percent): 20%

From patent publication US20040162428A1, “6-(2,6-difluorophenyl)-triazolopyrimidines as fungicides” (priority 2001, published 2004)
